Assay results taken from PubChem BioAssay (NCI).
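These data come from cells grown in 96-well plates and exposed to compound for 48 hours at five concentrations. The concentration for 50% growth inhibition is given as GI50. TGI: total growth inhibition.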

Tests used:
Test in all cases: inhibition of tumour cell growth, NCI panel, 48 h
HT29 colon = tested on: HT29 colon
SF-295 CNS = tested on: SF-295 CNS
SK-MEL-5 melanoma = tested on: SK-MEL-5 melanoma
OVCAR-8 ovarian = tested on: OVCAR-8 ovarian
K-562 leukemia = tested on: K-562 leukemia
PC-3 prostate = tested on: PC-3 prostate
M14 melanoma = tested on: M14 melanoma
IGROV1 ovarian = tested on: IGROV1 ovarian
NCI-H460 lung = tested on: NCI-H460 lung
HCT-15 colon = tested on: HCT-15 colon
786-0 renal = tested on: 786-0 renal
HOP-92 NSCLC = tested on: HOP-92 NSCLC
HCT-116 colon = tested on: HCT-116 colon
SNB-75 CNS = tested on: SNB-75 CNS
SF-539 CNS = tested on: SF-539 CNS
HOP-62 NSCLC = tested on: HOP-62 NSCLC
ACHN renal = tested on: ACHN renal
UACC-62 melanoma = tested on: UACC-62 melanoma
RXF 393 renal = tested on: RXF 393 renal
A549 NSCLC = tested on: A549 NSCLC
UACC-257 melanoma = tested on: UACC-257 melanoma
TK-10 renal = tested on: TK-10 renal
OVCAR-4 ovarian = tested on: OVCAR-4 ovarian
NCI/ADR-RES ovarian = tested on: NCI/ADR-RES ovarian
NCI-H226 lung = tested on: NCI-H226 lung
OVCAR-3 ovarian = tested on: OVCAR-3 ovarian
HCC-2998 colon = tested on: HCC-2998 colon
SN12C renal = tested on: SN12C renal
CCRF-CEM leukemia = tested on: CCRF-CEM leukemia
DU-145 prostate = tested on: DU-145 prostate
HS 578T breast = tested on: HS 578T breast
RPMI-8226 leukemia = tested on: RPMI-8226 leukemia
MOLT-4 leukemia = tested on: MOLT-4 leukemia
SK-MEL-28 melanoma = tested on: SK-MEL-28 melanoma
NCI-H522 lung = tested on: NCI-H522 lung
CAKI-1 renal = tested on: CAKI-1 renal
A498 renal = tested on: A498 renal
MALME-3M melanoma = tested on: MALME-3M melanoma
KM12 colon = tested on: KM12 colon
U251 CNS = tested on: U251 CNS
LOX IMVI melanoma = tested on: LOX IMVI melanoma
MDA-MB-435 = tested on: MDA-MB-435
SK-OV-3 ovarian = tested on: SK-OV-3 ovarian
SF-268 CNS = tested on: SF-268 CNS
EKVX NSCLC = tested on: EKVX NSCLC
OVCAR-5 ovarian = tested on: OVCAR-5 ovarian
MDA-MB-231 breast = tested on: MDA-MB-231 breast
SW-620 colon = tested on: SW-620 colon
COLO 205 colon = tested on: COLO 205 colon
UO-31 renal = tested on: UO-31 renal
HL-60(TB) leukemia = tested on: HL-60(TB) leukemia
NCI-H23 lung = tested on: NCI-H23 lung
T-47D breast = tested on: T-47D breast
SR leukemia = tested on: SR leukemia
MCF7 breast = tested on: MCF7 breast
SNB-19 CNS = tested on: SNB-19 CNS
SK-MEL-2 melanoma = tested on: SK-MEL-2 melanoma
BT-549 breast = tested on: BT-549 breast

SMILES: CC(=C(c1ccc(OCCN(C)C)cc1)c1ccc(OCCN(C)C)cc1)c1ccc(Cl)cc1
- GI50 (HT29 colon): 615 nM
- TGI (HT29 colon): 1490 nM
- GI50 (SF-295 CNS): 653 nM
- TGI (SF-295 CNS): 1380 nM
- GI50 (SK-MEL-5 melanoma): 597 nM
- TGI (SK-MEL-5 melanoma): 1090 nM
- GI50 (OVCAR-8 ovarian): 1170 nM
- TGI (OVCAR-8 ovarian): 4360 nM
- GI50 (K-562 leukemia): 770 nM
- TGI (K-562 leukemia): 7710 nM
- GI50 (PC-3 prostate): 932 nM
- TGI (PC-3 prostate): 3260 nM
- GI50 (M14 melanoma): 614 nM
- TGI (M14 melanoma): 1240 nM
- GI50 (IGROV1 ovarian): 826 nM
- TGI (IGROV1 ovarian): 2220 nM
- GI50 (NCI-H460 lung): 756 nM
- TGI (NCI-H460 lung): 1760 nM
- GI50 (HCT-15 colon): 625 nM
- TGI (HCT-15 colon): 1360 nM
- GI50 (786-0 renal): 591 nM
- TGI (786-0 renal): 1160 nM
- GI50 (HOP-92 NSCLC): 740 nM
- TGI (HOP-92 NSCLC): 3040 nM
- GI50 (HCT-116 colon): 544 nM
- TGI (HCT-116 colon): 1110 nM
- GI50 (SNB-75 CNS): 2580 nM
- TGI (SNB-75 CNS): 7600 nM
- GI50 (SF-539 CNS): 566 nM
- TGI (SF-539 CNS): 1100 nM
- GI50 (HOP-62 NSCLC): 3300 nM
- TGI (HOP-62 NSCLC): 8160 nM
- GI50 (ACHN renal): 709 nM
- TGI (ACHN renal): 1570 nM
- GI50 (UACC-62 melanoma): 576 nM
- TGI (UACC-62 melanoma): 1130 nM
- GI50 (RXF 393 renal): 706 nM
- TGI (RXF 393 renal): 2080 nM
- GI50 (A549 NSCLC): 1040 nM
- TGI (A549 NSCLC): 4140 nM
- GI50 (UACC-257 melanoma): 632 nM
- TGI (UACC-257 melanoma): 1270 nM
- GI50 (TK-10 renal): 4770 nM
- TGI (TK-10 renal): 9680 nM
- GI50 (OVCAR-4 ovarian): 1010 nM
- TGI (OVCAR-4 ovarian): 3100 nM
- GI50 (NCI/ADR-RES ovarian): 951 nM
- TGI (NCI/ADR-RES ovarian): 2950 nM
- GI50 (NCI-H226 lung): 4440 nM
- TGI (NCI-H226 lung): 10000 nM
- GI50 (OVCAR-3 ovarian): 756 nM
- TGI (OVCAR-3 ovarian): 2010 nM
- GI50 (HCC-2998 colon): 617 nM
- TGI (HCC-2998 colon): 1310 nM
- GI50 (SN12C renal): 1920 nM
- TGI (SN12C renal): 5740 nM
- GI50 (CCRF-CEM leukemia): 657 nM
- TGI (CCRF-CEM leukemia): 1840 nM
- GI50 (DU-145 prostate): 1380 nM
- TGI (DU-145 prostate): 4900 nM
- GI50 (HS 578T breast): 1370 nM
- TGI (HS 578T breast): 5140 nM
- GI50 (RPMI-8226 leukemia): 651 nM
- TGI (RPMI-8226 leukemia): 1580 nM
- GI50 (MOLT-4 leukemia): 713 nM
- TGI (MOLT-4 leukemia): 1810 nM
- GI50 (SK-MEL-28 melanoma): 605 nM
- TGI (SK-MEL-28 melanoma): 1130 nM
- GI50 (NCI-H522 lung): 756 nM
- TGI (NCI-H522 lung): 2100 nM
- GI50 (CAKI-1 renal): 652 nM
- TGI (CAKI-1 renal): 1690 nM
- GI50 (A498 renal): 3200 nM
- TGI (A498 renal): 7810 nM
- GI50 (MALME-3M melanoma): 570 nM
- TGI (MALME-3M melanoma): 1080 nM
- GI50 (KM12 colon): 1450 nM
- TGI (KM12 colon): 3560 nM
- GI50 (U251 CNS): 631 nM
- TGI (U251 CNS): 1460 nM
- GI50 (LOX IMVI melanoma): 542 nM
- TGI (LOX IMVI melanoma): 1030 nM
- GI50 (MDA-MB-435): 577 nM
- TGI (MDA-MB-435): 1120 nM
- GI50 (SK-OV-3 ovarian): 4800 nM
- TGI (SK-OV-3 ovarian): 9530 nM
- GI50 (SF-268 CNS): 1600 nM
- TGI (SF-268 CNS): 6210 nM
- GI50 (EKVX NSCLC): 1660 nM
- TGI (EKVX NSCLC): 6110 nM
- GI50 (OVCAR-5 ovarian): 1340 nM
- TGI (OVCAR-5 ovarian): 5260 nM
- GI50 (MDA-MB-231 breast): 687 nM
- TGI (MDA-MB-231 breast): 1560 nM
- GI50 (SW-620 colon): 569 nM
- TGI (SW-620 colon): 1170 nM
- GI50 (COLO 205 colon): 621 nM
- TGI (COLO 205 colon): 1270 nM
- GI50 (UO-31 renal): 847 nM
- TGI (UO-31 renal): 2650 nM
- GI50 (HL-60(TB) leukemia): 708 nM
- TGI (HL-60(TB) leukemia): 1640 nM
- GI50 (NCI-H23 lung): 2600 nM
- TGI (NCI-H23 lung): 7170 nM
- GI50 (T-47D breast): 633 nM
- TGI (T-47D breast): 1410 nM
- GI50 (SR leukemia): 638 nM
- TGI (SR leukemia): 3290 nM
- GI50 (MCF7 breast): 508 nM
- TGI (MCF7 breast): 1020 nM
- GI50 (SNB-19 CNS): 1160 nM
- TGI (SNB-19 CNS): 4360 nM
- GI50 (SK-MEL-2 melanoma): 2100 nM
- TGI (SK-MEL-2 melanoma): 4820 nM
- GI50 (BT-549 breast): 3170 nM
- TGI (BT-549 breast): 7780 nM
